Publication PMC6488038 (Journal of the American Chemical Society, 2018)

Test system: HCT116 cells
Assay: Cell viability, Alamar Blue assay, HCT116
Assay type: cell-based, human
Settings: 72 h

Q: `N#Cc1c2c(cc3c1C(=O)N[C@@H]1C3=C[C@H](O)[C@@H](O)[C@H]1O)OCO2` [compound 46, 7cyanolycoricidine] was tested. Which “activity compared to lycoricidine (3)” value did it give?
A: increased activity
